Data set [1] has as its system HSV-1. Type of data set: cell-based, herpes simplex virus type 1. The settings on record: for effect on intracellular HSV-1 RNA: different concentrations, HSV-1 MOI 1, 24 h, qPCR. The protocol:
(A) Amino acid sequence of Protopolybia-MP III. Basic residues are labeled blue, and acidic residues are labeled red. (B,C) Suppression of intracellular HSV-1 infection by Protopolybia-MP III. Cells were preincubated with Protopolybia-MP III at different concentrations or PBS for 1 h and then infected with HSV-1 at a multiplicity of infection (MOI) of 1. After 24 h, the cells were collected. Intracellular HSV-1 RNA was analyzed by qPCR (B), and intracellular HSV-1 ICP0 protein levels were analyzed by Western blotting (C). (D) Suppression of Protopolybia-MP III on extracellular HSV-1 particles. Cells were treated with Protopolybia-MP III at different concentrations or PBS for 24 h, and then the supernatant was collected and evaluated in a plaque formation assay. (E) Cytotoxicity of Protopolybia-MP III to Vero cells. Cells were treated with Protopolybia-MP III or PBS at different concentrations for 24 h, and then the cytotoxicity was determined by CCK8 assay. * p < 0.05. ** p < 0.01. *** p < 0.001.
(§1) Figure 2 Protopolybia-MP III inhibits HSV-1 replication in human cell lines. (A) Cytotoxicities of Protopolybia-MP III to A549 cells, HCEC, and SK-N-MC. Cells were treated with Protopolybia-MP III at different concentrations or PBS for 24 h, and then cytotoxicities were determined by the CCK8 assay. (B,C) Suppression of intracellular HSV-1 infection by Protopolybia-MP III in A549 cells, HCEC, and SK-N-MC. Cells were preincubated with Protopolybia-MP III at different concentrations or PBS for 1 h and then infected with HSV-1 at an MOI of 1. After 24 h, the cells were collected. Intracellular HSV-1 RNA was analyzed by qPCR (B), and intracellular HSV-1 ICP0 protein expression levels were analyzed by Western blotting (C). (D) Inhibition of Protopolybia-MP III on extracellular HSV-1 particles in A549 cells, HCEC, and SK-N-MC. Cells were treated with Protopolybia-MP III at different concentrations or PBS for 24 h, and then the supernatant was collected and evaluated in a plaque formation assay. * p < 0.05. ** p < 0.01. *** p < 0.001.
HSV-1 was kindly provided by Professor Zhijian Cao of Wuhan University. Cells were infected with HSV-1 at an MOI of 1 for 24 h. Then, cells were collected for qPCR, Western blotting, and immunofluorescence assays, and the extracellular supernatant was used for plaque formation assays.
Cells were collected and lysed using TRIzol reagent (Beyotime Biotechnology, Shanghai, China) to release the intracellular total RNA, followed by precipitation with isopropanol. The first-strand cDNA was reverse-transcribed by the HiScript III 1st Strand cDNA Synthesis Kit (+gDNA wiper) (Vazyme, Nanjing, China). The cDNA was quantitated by qPCR with primers using Taq Pro Universal SYBR qPCR Master Mix (Vazyme). The HSV-1 primers were 5′-[…]-3′ (sense) and 5′-[…]-3′ (antisense). The monkey GAPDH primers were 5′-[…]-3′ (sense) and 5′-[…]-3′ (antisense). The human GAPDH primers were 5′-[…]-3′ (sense) and 5′-[…]-3′ (antisense). qPCR experiments were performed on a Bio-Rad CFX96 Touch (Pleasanton, CA, USA) according to the manufacturer’s instructions.
A general note: Real-time PCR tracks product formation cycle by cycle.

The test system of data set [2] is human corneal epithelial cells (HCEC). Description: CCK8 cytotoxicity assay, HCEC. The settings on record: 40 μg/mL, 24 h. Type of data set: cell-based. The protocol:
as §1
Cells were seeded in a 96-well plate (7000–10,000 cells per well) and cultured at 37 °C overnight. Peptides in a series of concentrations were added to the medium, and cells were then incubated at 37 °C for 24 h. […] Finally, the absorbance was measured at 450 nm using a microplate reader (BioTek, Winooski, VT, USA).
(In general: Tetrazolium assays rely on reduction of a dye to a coloured formazan, in cell work by metabolically active cells.)

Read-outs that look alike come from different tables or passages of the source. Ends that are not written are not given here.

Take “INWLKLGKAVIDAL-NH2 [Protopolybia-MP III]”: in data set [1] (1 h), the “50% inhibitory concentration (IC50) against HSV-1 RNA” value was determined as 5.132 ± 1.054 µg/mL. The “inhibition rate on intracellular HSV-1 RNA” value in data set [1] (1 h, 5 μg/mL) is recorded as 50%; in data set [1] (1 h, 10 μg/mL), 73%; in data set [1] (1 h, 20 μg/mL), 94%. In addition, the “effect on intracellular HSV-1 RNA” value in data set [1] (A549 cells), in data set [1] (HCEC) and in data set [1] (SK-N-MC) was “suppressed HSV-1 RNA” in each case. The “cytotoxicity to HCEC” value in data set [2] is “almost nontoxic”.

The record behind these values is PMC10976043, “Function and Mechanism of Antiviral Wasp Venom Peptide Protopolybia-MP III and Its Derivatives against HSV-1” (Toxins, 2024).
